Experimental data as given in PMC7419507, “In vitro Cas9-assisted editing of modular polyketide synthase genes to produce desired natural product derivatives” (Nature Communications, 2020).
pEC50: −log10 of the molar value. “And” between values parts separate entries of the source, which are not always exact repeats. Equal entries are not always repeated.

Assays:
[1] = molecular target: T1, FKBP12 and mTOR (Homo sapiens, UniProt P42345+P62942); assay: Fluoppi analysis: induction of FKBP12-mTOR complex formation in transfected HeLa cells; type: cell-based; conditions: for Foci intensity: raw data, one replicate per line
T1 construct: host or cells: HeLa cells
T1 sequence (P42345 2025-2114 limits assumed): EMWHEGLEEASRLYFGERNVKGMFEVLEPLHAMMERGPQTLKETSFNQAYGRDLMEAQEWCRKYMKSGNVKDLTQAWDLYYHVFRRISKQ
T1 sequence (P62942 whole entry): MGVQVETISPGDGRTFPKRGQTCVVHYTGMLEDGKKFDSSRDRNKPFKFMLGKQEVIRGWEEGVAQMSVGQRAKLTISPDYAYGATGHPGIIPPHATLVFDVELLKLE
In short: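 Complex formation read as fluorescent foci: foci intensity over total per-cell intensity, imaged (×20, 9 fields/well) after fixation and Hoechst stain, giving EC50. Cells: HeLa transiently expressing hAG-mTOR and Ash-FKBP12, exposed to compound concentrations for 1 h at 37 °C.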

[2] = Cytotoxicity assay (CellTiter-Glo, 72 h), SKOV-3; type: cell-based, human; conditions: human, raw replicate data, read-out: SKOV3 viability (%)
In short: (§1)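 Following 4 h attachment at 1000 cells/well, the three lines received serially halved compound doses (DMSO 0.5%) for 72 h at 37 °C under 5% CO2, with cell viability then determined by CellTiter-Glo.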

[3] = system: human ovarian adenocarcinoma SKOV-3 cells; assay: Cytotoxicity assay (CellTiter-Glo, 72 h), SKOV-3; type: cell-based; conditions: raw replicate data
In short: as §1

[4] = Cytotoxicity assay (CellTiter-Glo, 72 h), MESO-1; type: cell-based; conditions: human, MESO-1 malignant pleural mesothelioma cells, raw replicate data, read-out: MESO1 viability (%)
In short: as §1

[5] = system: malignant pleural mesothelioma MESO-1 cells; assay: Cytotoxicity assay (CellTiter-Glo, 72 h), MESO-1; type: cell-based; conditions: raw replicate data
In short: as §1

[6] = system: Jurkat, SKOV-3 and MESO-1 cells; assay: Cytotoxicity assay, statements for all tested cell lines together; type: cell-based; conditions: Jurkat, SKOV-3 and MESO-1 cells, 72 h
In short: as §1

With `COC1CC2CCC(C)C(O)(O2)C(=O)C(=O)N2CCCCC2C(=O)OC(C(C)CC2CCC(O)C(OC)C2)CC(O)CC(=O)C(C)C=C(C)C(O)CC(=O)C(C)CC(C)C=CC=CC=C1C` (stereo not shown) [Compound 13] the “PPI-inducing (binding enhancing) activity between FKBP12 and mTOR compared with rapamycin (1), in words” value ([1]; Fluoppi) was “relatively weaker activities”, the pEC50 ([1]; Fluoppi, HeLa cells, 1 h treatment, three independent biological replicates, read-out: EC50, induction of the formation of FKBP-mTOR complex) was 7.14 and the Foci intensity ([1]; conc 9.53674e-5 uM) was 0.02036 and 0.008593 and 0.006167. For the same compound, the Foci intensity ([1]; conc 0.000190735 uM) was 0.01432 and 0.008145 and 0.01977, the Foci intensity ([1]; conc 0.00038147 uM) was 0.01002 and 0.01191 and 0.006949 and the Foci intensity ([1]; conc 0.000762939 uM) was 0.02361 and 0.0319 and 0.02031. For the same compound, the Foci intensity ([1]; conc 0.00152588 uM) was 0.02629 and 0.01654 and 0.01268, the Foci intensity ([1]; conc 0.00305176 uM) was 0.02214 and 0.02006 and 0.01134 and the Foci intensity ([1]; conc 0.00610352 uM) was 0.03874 and 0.01998 and 0.01509. For the same compound, the Foci intensity ([1]; conc 0.012207 uM) was 0.01596 and 0.01655 and 0.01094, the Foci intensity ([1]; conc 0.0244141 uM) was 0.04032 and 0.02924 and 0.04626 and the Foci intensity ([1]; conc 0.0488281 uM) was 0.1206 and 0.1281 and 0.1053. For the same compound, the Foci intensity ([1]; conc 0.0976562 uM) was 0.3145 and 0.2601 and 0.1852, the Foci intensity ([1]; conc 0.195312 uM) was 0.3854 and 0.3277 and 0.371 and the Foci intensity ([1]; conc 0.390625 uM) was 0.4069 and 0.3307 and 0.3864. For the same compound, the Foci intensity ([1]; conc 0.78125 uM) was 0.4181 and 0.3809 and 0.3423, the Foci intensity ([1]; conc 1.5625 uM) was 0.3991 and 0.3532 and 0.4458 and the Foci intensity ([1]; conc 3.125 uM) was 0.3573 and 0.4306 and 0.409. For the same compound, the Foci intensity ([1]; conc 6.25 uM) was 0.3647 and 0.3805 and 0.3539, the Foci intensity ([1]; conc 12.5 uM) was 0.3743 and 0.3421 and 0.396 and the Foci intensity ([1]; conc 25 uM) was 0.3317 and 0.3763 and 0.373. For the same compound, the Foci intensity ([1]; conc 50 uM) was 0.3749 and 0.3065 and 0.4374, the viability at 72 h, 9.53674e-05 uM ([2]; SKOV-3 cells (ovarian adenocarcinoma), conc 9.53674e-5 uM) was 101% and the viability at 72 h, 0.000190735 uM ([2]; SKOV-3 cells (ovarian adenocarcinoma), conc 0.000190735 uM) was 105%. It also gave a viability at 72 h, 0.00038147 uM ([2]; SKOV-3 cells (ovarian adenocarcinoma), conc 0.00038147 uM) of 103%, a viability at 72 h, 0.000762939 uM ([2]; SKOV-3 cells (ovarian adenocarcinoma), conc 0.000762939 uM) of 104% and a viability at 72 h, 0.00152588 uM ([2]; SKOV-3 cells (ovarian adenocarcinoma), conc 0.00152588 uM) of 106%. For the same compound, the viability at 72 h, 0.00305176 uM ([2]; SKOV-3 cells (ovarian adenocarcinoma), conc 0.00305176 uM) was 104%, the viability at 72 h, 0.00610352 uM ([2]; SKOV-3 cells (ovarian adenocarcinoma), conc 0.00610352 uM) was 104% and the viability at 72 h, 0.012207 uM ([2]; SKOV-3 cells (ovarian adenocarcinoma), conc 0.012207 uM) was 100%. For the same compound, the viability at 72 h, 0.0244141 uM ([2]; SKOV-3 cells (ovarian adenocarcinoma), conc 0.0244141 uM) was 97.8%, the viability at 72 h, 0.0488281 uM ([2]; SKOV-3 cells (ovarian adenocarcinoma), conc 0.0488281 uM) was 100% and the viability at 72 h, 0.0976562 uM ([2]; SKOV-3 cells (ovarian adenocarcinoma), conc 0.0976562 uM) was 93.5%. For the same compound, the viability at 72 h, 0.195312 uM ([2]; SKOV-3 cells (ovarian adenocarcinoma), conc 0.195312 uM) was 80.1%, the viability at 72 h, 0.390625 uM ([2]; SKOV-3 cells (ovarian adenocarcinoma), conc 0.390625 uM) was 72.3% and the viability at 72 h, 12.5 uM ([2]; SKOV-3 cells (ovarian adenocarcinoma), conc 12.5 uM) was 74%. For the same compound, the viability at 72 h, 25 uM ([2]; SKOV-3 cells (ovarian adenocarcinoma), conc 25 uM) was 76.6%, the viability at 72 h, 50 uM ([2]; SKOV-3 cells (ovarian adenocarcinoma), conc 50 uM) was 61.1% and the viability at 72 h, 0.78125 uM ([2]; SKOV-3 ovarian adenocarcinoma cells, conc 0.78125 uM) was 70.5%. The viability at 72 h, 1.5625 uM ([2]; SKOV-3 ovarian adenocarcinoma cells, conc 1.5625 uM) was 74.6%, the viability at 72 h, 3.125 uM ([2]; SKOV-3 ovarian adenocarcinoma cells, conc 3.125 uM) was 67.3% and the viability at 72 h, 6.25 uM ([2]; SKOV-3 ovarian adenocarcinoma cells, conc 6.25 uM) was 76.1%. The “SKOV3 viability (%)” value ([3]; conc 9.53674e-5 uM) was 107.4% and 106.9%, the “SKOV3 viability (%)” value ([3]; conc 0.000190735 uM) was 98.8% and 103.7% and the “SKOV3 viability (%)” value ([3]; conc 0.00038147 uM) was 108.6% and 110.4%. For the same compound, the “SKOV3 viability (%)” value ([3]; conc 0.000762939 uM) was 108.3% and 103.9%, the “SKOV3 viability (%)” value ([3]; conc 0.00152588 uM) was 101.0% and 99.9% and the “SKOV3 viability (%)” value ([3]; conc 0.00305176 uM) was 105.3% and 103.9%. The “SKOV3 viability (%)” value ([3]; conc 0.00610352 uM) was 110.1% and 106.3%, the “SKOV3 viability (%)” value ([3]; conc 0.012207 uM) was 101.2% and 96.8% and the “SKOV3 viability (%)” value ([3]; conc 0.0244141 uM) was 104.0%. For the same compound, the “SKOV3 viability (%)” value ([3]; conc 0.0488281 uM) was 98.0% and 96.8%, the “SKOV3 viability (%)” value ([3]; conc 0.0976562 uM) was 97.2% and 95.3% and the “SKOV3 viability (%)” value ([3]; conc 0.195312 uM) was 69.7% and 74.1%. The “SKOV3 viability (%)” value ([3]; conc 0.390625 uM) was 69.6% and 63.1%, the “SKOV3 viability (%)” value ([3]; conc 0.78125 uM) was 63.6% and 66.9% and the “SKOV3 viability (%)” value ([3]; conc 1.5625 uM) was 66.7%. For the same compound, the “SKOV3 viability (%)” value ([3]; conc 3.125 uM) was 68.3% and 74.5%, the “SKOV3 viability (%)” value ([3]; conc 6.25 uM) was 79.3% and 78.5% and the “SKOV3 viability (%)” value ([3]; conc 12.5 uM) was 75.9%. The “SKOV3 viability (%)” value ([3]; conc 25 uM) was 73.5% and 81.4%, the “SKOV3 viability (%)” value ([3]; conc 50 uM) was 55.5% and 58.9% and the viability at 72 h, 9.53674e-05 uM ([4]; conc 9.53674e-5 uM) was 107%. The viability at 72 h, 0.000190735 uM ([4]; conc 0.000190735 uM) was 109%, the viability at 72 h, 0.00038147 uM ([4]; conc 0.00038147 uM) was 103% and the viability at 72 h, 0.000762939 uM ([4]; conc 0.000762939 uM) was 96.5%. The viability at 72 h, 0.00152588 uM ([4]; conc 0.00152588 uM) was 103%, the viability at 72 h, 0.00305176 uM ([4]; conc 0.00305176 uM) was 101% and the viability at 72 h, 0.00610352 uM ([4]; conc 0.00610352 uM) was 108%. The viability at 72 h, 0.012207 uM ([4]; conc 0.012207 uM) was 101%, the viability at 72 h, 0.0244141 uM ([4]; conc 0.0244141 uM) was 95.9% and the viability at 72 h, 0.0488281 uM ([4]; conc 0.0488281 uM) was 92.5%. It also gave a viability at 72 h, 0.0976562 uM ([4]; conc 0.0976562 uM) of 82%, a viability at 72 h, 0.195312 uM ([4]; conc 0.195312 uM) of 74.6% and a viability at 72 h, 0.390625 uM ([4]; conc 0.390625 uM) of 77.6%. It also gave a viability at 72 h, 0.78125 uM ([4]; conc 0.78125 uM) of 68.5%, a viability at 72 h, 1.5625 uM ([4]; conc 1.5625 uM) of 71.4% and a viability at 72 h, 3.125 uM ([4]; conc 3.125 uM) of 70.6%. It also gave a viability at 72 h, 6.25 uM ([4]; conc 6.25 uM) of 68.1%, a viability at 72 h, 12.5 uM ([4]; conc 12.5 uM) of 69.4% and a viability at 72 h, 25 uM ([4]; conc 25 uM) of 61.7%. For the same compound, the viability at 72 h, 50 uM ([4]; conc 50 uM) was 32.5%, the “MESO1 viability (%)” value ([5]; conc 9.53674e-5 uM) was 98.4% and 101.6% and the “MESO1 viability (%)” value ([5]; conc 0.000190735 uM) was 99.7% and 102.2%. The “MESO1 viability (%)” value ([5]; conc 0.00038147 uM) was 106.9% and 102.5%, the “MESO1 viability (%)” value ([5]; conc 0.000762939 uM) was 98.2% and 93.2% and the “MESO1 viability (%)” value ([5]; conc 0.00152588 uM) was 104.8% and 103.9%. For the same compound, the “MESO1 viability (%)” value ([5]; conc 0.00305176 uM) was 98.6% and 103.9%, the “MESO1 viability (%)” value ([5]; conc 0.00610352 uM) was 105.0% and 100.2% and the “MESO1 viability (%)” value ([5]; conc 0.012207 uM) was 91.1%. The “MESO1 viability (%)” value ([5]; conc 0.0244141 uM) was 101.5% and 98.1%, the “MESO1 viability (%)” value ([5]; conc 0.0488281 uM) was 89.5% and 85.7% and the “MESO1 viability (%)” value ([5]; conc 0.0976562 uM) was 82.3% and 85.5%. For the same compound, the “MESO1 viability (%)” value ([5]; conc 0.195312 uM) was 72.4% and 76.8%, the “MESO1 viability (%)” value ([5]; conc 0.390625 uM) was 77.4% and 73.9% and the “MESO1 viability (%)” value ([5]; conc 0.78125 uM) was 67.0% and 66.3%. The “MESO1 viability (%)” value ([5]; conc 1.5625 uM) was 65.2% and 74.0%, the “MESO1 viability (%)” value ([5]; conc 3.125 uM) was 66.5% and 63.4% and the “MESO1 viability (%)” value ([5]; conc 6.25 uM) was 73.7% and 75.2%. For the same compound, the “MESO1 viability (%)” value ([5]; conc 12.5 uM) was 72.5% and 66.5%, the “MESO1 viability (%)” value ([5]; conc 25 uM) was 64.3% and 66.3% and the “MESO1 viability (%)” value ([5]; conc 50 uM) was 29.9% and 28.1%. The “Effect on cell viability, in words” value [6] was “slightly suppressed the cell viabilities”.
